From patent US20180036289A1 (Gilead Sciences, Inc., priority 2016, published 2018)

What was measured:
Test in all cases: Cell proliferation assay (ATPlite), drug with vs without cobicistat
Type in all cases: cell-based
Hs 578T = Hs 578T cell line; 120 hours incubation
Summary of the method: (§1)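 Cells were seeded at 200–3200 per well and left 24 h at 37 °C, 5% CO2, then treated with a 9-point, 3.16-fold series (3.16×10^−5 to 3.16×10^−9 M, duplicate, 0.4% DMSO) for 120 h. ATPlite luminescence gave %-growth versus untreated, and IC50 came from a 4-parameter logistic fit.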

Daoy = Daoy cell line; 120 hours incubation
Summary of the method: as §1

A-172 = A-172 cell line; 120 hours incubation
Summary of the method: as §1

SJCRH30 = SJCRH30 cell line; 120 hours incubation
Summary of the method: as §1

FaDu = FaDu cell line; 120 hours incubation
Summary of the method: as §1

SW948 = SW948 cell line; 120 hours incubation
Summary of the method: as §1

HCT 116 = HCT 116 cell line; 120 hours incubation
Summary of the method: as §1

T98G = T98G cell line; 120 hours incubation
Summary of the method: as §1

MG-63 = MG-63 cell line; 120 hours incubation
Summary of the method: as §1

SW48 = SW48 cell line; 120 hours incubation
Summary of the method: as §1

SK-N-FI = SK-N-FI cell line; 120 hours incubation
Summary of the method: as §1

MIA PaCa-2 = MIA PaCa-2 cell line; 120 hours incubation
Summary of the method: as §1

U-87 MG = U-87 MG cell line; 120 hours incubation
Summary of the method: as §1

BT-20 = BT-20 cell line; 120 hours incubation
Summary of the method: as §1

A-204 = A-204 cell line; 120 hours incubation
Summary of the method: as §1

SHP-77 = SHP-77 cell line; 120 hours incubation
Summary of the method: as §1

BT-549 = BT-549 cell line; 120 hours incubation
Summary of the method: as §1

OVCAR-3 = OVCAR-3 cell line; 120 hours incubation
Summary of the method: as §1

U-2 OS = U-2 OS cell line; 120 hours incubation
Summary of the method: as §1

SW480 = SW480 cell line; 120 hours incubation
Summary of the method: as §1

MOLT-4 = MOLT-4 cell line; 120 hours incubation
Summary of the method: as §1

AsPC-1 = AsPC-1 cell line; 120 hours incubation
Summary of the method: as §1

769-P = 769-P cell line; 120 hours incubation
Summary of the method: as §1

C-33 A = C-33 A cell line; 120 hours incubation
Summary of the method: as §1

DLD-1 = DLD-1 cell line; 120 hours incubation
Summary of the method: as §1

HCT-15 = HCT-15 cell line; 120 hours incubation
Summary of the method: as §1

A388 = A388 cell line; 120 hours incubation
Summary of the method: as §1

COLO 205 = COLO 205 cell line; 120 hours incubation
Summary of the method: as §1

PA-1 = PA-1 cell line; 120 hours incubation
Summary of the method: as §1

J82 = J82 cell line; 120 hours incubation
Summary of the method: as §1

SMILES | Fold change in IC50 (IC50 [Drug + Cobicistat]/IC50 [Drug]) (Hs 578T) [fold] | Fold change in IC50 (IC50 [Drug + Cobicistat]/IC50 [Drug]) (Daoy) [fold] | Fold change in IC50 (IC50 [Drug + Cobicistat]/IC50 [Drug]) (A-172) [fold] | Fold change in IC50 (IC50 [Drug + Cobicistat]/IC50 [Drug]) (SJCRH30) [fold] | Fold change in IC50 (IC50 [Drug + Cobicistat]/IC50 [Drug]) (FaDu) [fold] | Fold change in IC50 (IC50 [Drug + Cobicistat]/IC50 [Drug]) (SW948) [fold] | Fold change in IC50 (IC50 [Drug + Cobicistat]/IC50 [Drug]) (HCT 116) [fold] | Fold change in IC50 (IC50 [Drug + Cobicistat]/IC50 [Drug]) (T98G) [fold] | Fold change in IC50 (IC50 [Drug + Cobicistat]/IC50 [Drug]) (MG-63) [fold] | Fold change in IC50 (IC50 [Drug + Cobicistat]/IC50 [Drug]) (SW48) [fold] | Fold change in IC50 (IC50 [Drug + Cobicistat]/IC50 [Drug]) (SK-N-FI) [fold] | Fold change in IC50 (IC50 [Drug + Cobicistat]/IC50 [Drug]) (MIA PaCa-2) [fold] | Fold change in IC50 (IC50 [Drug + Cobicistat]/IC50 [Drug]) (U-87 MG) [fold] | Fold change in IC50 (IC50 [Drug + Cobicistat]/IC50 [Drug]) (BT-20) [fold] | Fold change in IC50 (IC50 [Drug + Cobicistat]/IC50 [Drug]) (A-204) [fold] | Fold change in IC50 (IC50 [Drug + Cobicistat]/IC50 [Drug]) (SHP-77) [fold] | Fold change in IC50 (IC50 [Drug + Cobicistat]/IC50 [Drug]) (BT-549) [fold] | Fold change in IC50 (IC50 [Drug + Cobicistat]/IC50 [Drug]) (OVCAR-3) [fold] | Fold change in IC50 (IC50 [Drug + Cobicistat]/IC50 [Drug]) (U-2 OS) [fold] | Fold change in IC50 (IC50 [Drug + Cobicistat]/IC50 [Drug]) (SW480) [fold] | also measured
CC(=O)O[C@H]1C(=O)[C@@]2(C)[C@H]([C@H](OC(=O)c3ccccc3)[C@]3(O)C[C@H](OC(=O)[C@H](O)[C@@H](NC(=O)c4ccccc4)c4ccccc4)C(C)=C1C3(C)C)[C@]1(OC(C)=O)CO[C@@H]1C[C@@H]2O [paclitaxel] | 2.6 | 3.4 | 1.7 | 1.6 | 1.3 | 2.6 | 1.0 | 5.2 | 2.4 | 1.4 | 2.5 | 3.0 | 2.2 | 1.5 | 3.6 | 2.3 | 1.2 | 1.7 | 3.2 | 1.9 | Fold change in IC50 (IC50 [Drug + Cobicistat]/IC50 [Drug]) (MOLT-4): 2.1 fold; Fold change in IC50 (IC50 [Drug + Cobicistat]/IC50 [Drug]) (AsPC-1): 2.2 fold; Fold change in IC50 (IC50 [Drug + Cobicistat]/IC50 [Drug]) (769-P): 2.9 fold; Fold change in IC50 (IC50 [Drug + Cobicistat]/IC50 [Drug]) (C-33 A): 1.3 fold; Fold change in IC50 (IC50 [Drug + Cobicistat]/IC50 [Drug]) (DLD-1): 1.9 fold; Fold change in IC50 (IC50 [Drug + Cobicistat]/IC50 [Drug]) (HCT-15): 2.4 fold; Fold change in IC50 (IC50 [Drug + Cobicistat]/IC50 [Drug]) (A388): 2.7 fold; Fold change in IC50 (IC50 [Drug + Cobicistat]/IC50 [Drug]) (COLO 205): 3.0 fold; Fold change in IC50 (IC50 [Drug + Cobicistat]/IC50 [Drug]) (PA-1): 3.9 fold; Fold change in IC50 (IC50 [Drug + Cobicistat]/IC50 [Drug]) (J82): 2.9 fold
COc1cccc2c1C(=O)c1c(O)c3c(c(O)c1C2=O)C[C@@](O)(C(=O)CO)C[C@@H]3O[C@H]1C[C@H](N)[C@H](O)[C@H](C)O1 [doxorubicin] | 1.7 | 1.6 | 2.5 | 2.2 | 1.7 | 2.5 | 1.8 | 1.4 | 2.4 | 1.8 | 2.0 | 2.2 | 0.7 | 1.0 | 2.5 | 2.5 | 1.5 | 2.5 | 3.0 | 2.5 | Fold change in IC50 (IC50 [Drug + Cobicistat]/IC50 [Drug]) (MOLT-4): 1.9 fold; Fold change in IC50 (IC50 [Drug + Cobicistat]/IC50 [Drug]) (AsPC-1): 1.3 fold; Fold change in IC50 (IC50 [Drug + Cobicistat]/IC50 [Drug]) (769-P): 5.1 fold; Fold change in IC50 (IC50 [Drug + Cobicistat]/IC50 [Drug]) (C-33 A): 1.9 fold; Fold change in IC50 (IC50 [Drug + Cobicistat]/IC50 [Drug]) (DLD-1): 1.4 fold; Fold change in IC50 (IC50 [Drug + Cobicistat]/IC50 [Drug]) (HCT-15): 2.0 fold; Fold change in IC50 (IC50 [Drug + Cobicistat]/IC50 [Drug]) (A388): 1.7 fold; Fold change in IC50 (IC50 [Drug + Cobicistat]/IC50 [Drug]) (COLO 205): 2.3 fold; Fold change in IC50 (IC50 [Drug + Cobicistat]/IC50 [Drug]) (PA-1): 3.0 fold; Fold change in IC50 (IC50 [Drug + Cobicistat]/IC50 [Drug]) (J82): 2.2 fold
CC[C@]1(O)C[C@@H]2CN(CCc3c([nH]c4ccccc34)[C@@](C(=O)OC)(c3cc4c(cc3OC)N(C)[C@H]3[C@@](O)(C(=O)OC)[C@H](OC(C)=O)[C@]5(CC)C=CCN6CC[C@]43[C@@H]65)C2)C1 [vinblastine] | 3.7 | 5.7 | 3.0 | 3.8 | 2.2 | 4.2 | 2.0 | 4.9 | 2.8 | 2.5 | 4.5 | 3.7 | 2.6 | 2.7 | 4.0 | 2.0 | 3.3 | 2.6 | 4.4 | 3.3 | Fold change in IC50 (IC50 [Drug + Cobicistat]/IC50 [Drug]) (MOLT-4): 2.8 fold; Fold change in IC50 (IC50 [Drug + Cobicistat]/IC50 [Drug]) (AsPC-1): 5.6 fold; Fold change in IC50 (IC50 [Drug + Cobicistat]/IC50 [Drug]) (769-P): 2.5 fold; Fold change in IC50 (IC50 [Drug + Cobicistat]/IC50 [Drug]) (C-33 A): 1.9 fold; Fold change in IC50 (IC50 [Drug + Cobicistat]/IC50 [Drug]) (DLD-1): 2.2 fold; Fold change in IC50 (IC50 [Drug + Cobicistat]/IC50 [Drug]) (HCT-15): 2.3 fold; Fold change in IC50 (IC50 [Drug + Cobicistat]/IC50 [Drug]) (A388): 4.7 fold; Fold change in IC50 (IC50 [Drug + Cobicistat]/IC50 [Drug]) (COLO 205): 4.9 fold; Fold change in IC50 (IC50 [Drug + Cobicistat]/IC50 [Drug]) (PA-1): 6.3 fold; Fold change in IC50 (IC50 [Drug + Cobicistat]/IC50 [Drug]) (J82): 4.2 fold
